According to publication PMC10673369, “Preliminary SAR of Novel Pleuromutilin–Polyamine Conjugates” (Microorganisms, 2023):

Tests used:
P. aeruginosa PAO1 = test: MIC, broth dilution, P. aeruginosa PAO1; type: cell-based; details: Pseudomonas aeruginosa, mean (n = 3)
Experimental: (§1) The susceptibility of bacterial strains S. aureus (ATCC 25923), E. coli (ATCC 25922), and P. aeruginosa (ATCC 27853 or PAO1) to antibiotics and compounds was determined using reported protocols. Additional antimicrobial evaluation against MRSA (ATCC 43300), Klebsiella pneumoniae (ATCC 700603), A. baumannii (ATCC 19606), Candida albicans (ATCC 90028), and Cryptococcus neoformans (ATCC 208821) was undertaken at the Community for Open Antimicrobial Drug Discovery at The University of Queensland (Australia) according to their standard protocols as reported previously. […]
(§2) 2.3. Antimicrobial Assays
(§3) The susceptibility of bacterial strains S. aureus (ATCC 25923), E. coli (ATCC 25922), and P. aeruginosa (ATCC 27853 or PAO1) to antibiotics and compounds was determined in microplates using the standard broth dilution method in accordance with the recommendations of the Comité de l’AntibioGramme de la Société Française de Microbiologie (CA-SFM). Briefly, the minimal inhibitory concentrations (MICs) were determined with an inoculum of 10^5 CFU in 200 µL of Mueller–Hinton broth (MHB) containing two-fold serial dilutions of each drug. The MIC was defined as the lowest […]
(§4) determine all MICs, the measurements were independently repeated in triplicate. Additional antimicrobial evaluation against MRSA (ATCC 43300), Klebsiella pneumoniae (ATCC 700603), A. baumannii (ATCC 19606), Candida albicans (ATCC 90028), and Cryptococcus neoformans (ATCC 208821) was undertaken at the Community for Open Antimicrobial Drug Discovery at The University of Queensland (Australia) according to their standard protocols as reported previously. […]
(§5) For C. neoformans, resazurin was added at 0.006% final concentration to each well and incubated for a further 3 h before MICs were determined by measuring […]
(§6) Colistin and vancomycin were used as positive bacterial inhibitor standards for Gram-negative and Gram-positive bacteria, respectively. Fluconazole was used as a positive fungal inhibitor standard for C. albicans and C. neoformans. The antibiotics were provided in […], with 3 above and 3 below its MIC value, and plated into the first 8 wells of column 23 of the 384-well NBS plates. The quality control (QC) of the assays was determined by the antimicrobial controls and the Z'-factor (using positive and negative controls). Each plate was deemed to fulfil the quality criteria (pass QC) if the Z'- […]
(§7) inhibition at their highest concentration, and no growth inhibition at their lowest concentration.
(§8) 2.4. Determination of the MICs of Antibiotics in the Presence of Synergizing Compounds

[1] = tested on: C. neoformans ATCC 208821; test: MIC, CO-ADD antifungal assay, C. neoformans; type: cell-based, Cryptococcus neoformans; details: Cryptococcus neoformans, ATCC208821, mean (n = 2)
Experimental: as §1, §2
(§9) The susceptibility of bacterial strains S. aureus (ATCC 25923), E. coli (ATCC 25922), and P. […]
baumannii (ATCC 19606), Candida albicans (ATCC 90028), and Cryptococcus neoformans (ATCC 208821) was undertaken at the Community for Open Antimicrobial Drug Discovery at The University of Queensland (Australia) according to their standard protocols as reported previously. […]
For the antifungal assay, fungi strains were cultured for 3 days on YPD agar at 30 °C. A yeast suspension of 1 × 106 to 5 × 10^6 CFU/mL was prepared from five colonies. These stock suspensions were diluted with yeast nitrogen base (YNB) (Becton Dickinson, 233520) broth to a final concentration of 2.5 × 10^3 CFU/mL. The compounds were serially diluted 2-fold across the wells of 96-well plates (Corning 3641, non-binding surface), with compound concentrations ranging from 0.015 to 64 µg/mL and final volumes of 50 µL, plated in duplicate. Then, 50 µL of the fungi suspension that was previously prepared in YNB broth to the final concentration of 2.5 × 10^3 CFU/mL was added to each well of the compound-containing plates, giving a final compound concentration range of 0.008 to 32 µg/mL. Plates were covered and incubated at 35 °C for 36 h without shaking. C. albicans MICs were determined by measuring the absorbance at OD530. For C. neoformans, resazurin was added at 0.006% final concentration to each well and incubated for a further 3 h before MICs were determined by measuring […]
as §6, §7, §8

S. aureus ATCC 25923 = test: MIC, broth dilution, S. aureus; type: cell-based; details: Staphylococcus aureus, ATCC25923, mean (n = 3)
Experimental: as §1, §2, §3, §4, §5, §6, §7, §8

human red blood cells = test: Hemolytic assay; type: cell-based; details: mean (n = 2)
Experimental: Hemolysis assays were conducted using reported protocols (see Supplementary File). […]
Human whole blood was washed three times with three volumes of 0.9% NaCl and then resuspended in the same solution to a concentration of 0.5 x 10^8 cells/mL, as determined by the manual cell count in a Neubauer hemocytometer. The washed cells were then added to the 384-well compound-containing plates for a final volume of 50 µL. After a 10 min shake on a plate shaker, the plates were then incubated for 1 h at 37 °C. After incubation, the plates were centrifuged at 1,000g for 10 min to pellet cells and debris; 25 µL of the supernatant was then transferred to a polystyrene 384-well assay plate. Hemolysis was determined by measuring the supernatant absorbance at […] (OD405). The absorbance was measured using a Tecan M1000 Pro monochromator plate reader. HC10 and HC50 (concentration at 10% and 50% hemolysis, respectively) were calculated by curve fitting the inhibition values vs. log (concentration) using a sigmoidal dose–response function with variable fitting values for the top, bottom, and slope. […]

[2] = tested on: K. pneumoniae ATCC 700603; test: MIC, CO-ADD broth microdilution, K. pneumoniae; type: cell-based, Klebsiella pneumoniae; details: Klebsiella pneumoniae, ATCC700603, mean (n = 2)
Experimental: as §1, §2, §9
baumannii (ATCC 19606), Candida albicans (ATCC 90028), and Cryptococcus neoformans (ATCC 208821) was undertaken at the Community for Open Antimicrobial Drug Discovery at The University of Queensland (Australia) according to their standard protocols as reported previously. For antimicrobial assays, the tested strains were cultured in either Luria broth (LB) (In Vitro Technologies, USB75852), nutrient broth (NB) (Becton Dickson, 234000), or MHB at 37 °C overnight. A sample of culture was then diluted 40-fold in fresh MHB and incubated at 37 °C for 1.5−2 h. The compounds were serially diluted 2-fold across the wells of 96-well plates (Corning 3641, non-binding surface), with compound concentrations ranging from 0.015 to 64 µg/ mL, and plated in duplicate. The resultant mid-log phase cultures were diluted to the final concentration of 1 × 10^6 CFU/mL; then, 50 µL was added to each well of the compound-containing plates, giving a final compound concentration range of 0.008 to 32 µg/mL and a cell density of 5 × 10^5 CFU/mL. All plates were then covered and incubated at 37 °C for 18 h. Resazurin was added at 0.001% final concentration to each well and incubated for 2 h before MICs […]
as §5, §6, §7, §8

C=C[C@]1(C)C[C@@H](OC(=O)CNCCCNCCCCCCCCCCCCNCCCNCC(=O)O[C@@H]2C[C@@](C)(C=C)[C@@H](O)[C@H](C)[C@]34CCC(=O)[C@H]3[C@@]2(C)[C@H](C)CC4)[C@]2(C)[C@H](C)CC[C@]3(CCC(=O)[C@H]32)[C@@H](C)[C@@H]1O.O=C(O)C(F)(F)F.O=C(O)C(F)(F)F.O=C(O)C(F)(F)F.O=C(O)C(F)(F)F [Compound 9f, N^1,N^1′-(Dodecane-1,12-diyl)bis(N^3-(2-(((3aR,4R,5R,7S,8S,9R,9aS,12R)-8-hydroxy-4,7,9,12-tetramethyl-3-oxo-7-vinyldecahydro-4,9a-propanocyclopenta [8]annulen-5-yl)oxy)-2-oxoethyl)propane-1,3-diaminium) 2,2,2-trifluoroacetate]
MIC (P. aeruginosa PAO1): 33.5 µM
MIC [1]: ≤ 0.17 µM
MIC (S. aureus ATCC 25923): 2.1 µM
Hemolysis (HC10), concentration of compound at 10% hemolytic activity (human red blood cells): 13.2 µM
MIC [2]: 21.5 µM
